Measured values taken from PMC6469676 (SLAS discovery : advancing life sciences R & D, 2018).

How the values were obtained:
in vitro = conditions: African green monkey
integrin αIIbβ3 = integrin αIIbβ3 (Homo sapiens, UniProt P05106+P08514); assay type: cell-based
[1] = system: SNV^R18 on DAF-functionalized beads; assay type: binding
[2] = system: SNV^F18 bound to Tanoue B cells; conditions: read-out: IC50, competition binding vs SNV^F18 bound to Tanoue B cells
Hantaan virus (HTN) = assay type: cell-based; conditions: 10 µM
Sin Nombre virus (SNV) = assay type: cell-based; conditions: 10 µM
[3] = system: SNV-induced cAMP production in CHO-A24 cells; assay type: cell-based
SNV = assay type: cell-based, Sin Nombre virus

integrin αIIbβ3, sequence (P08514 32-887 limits assumed): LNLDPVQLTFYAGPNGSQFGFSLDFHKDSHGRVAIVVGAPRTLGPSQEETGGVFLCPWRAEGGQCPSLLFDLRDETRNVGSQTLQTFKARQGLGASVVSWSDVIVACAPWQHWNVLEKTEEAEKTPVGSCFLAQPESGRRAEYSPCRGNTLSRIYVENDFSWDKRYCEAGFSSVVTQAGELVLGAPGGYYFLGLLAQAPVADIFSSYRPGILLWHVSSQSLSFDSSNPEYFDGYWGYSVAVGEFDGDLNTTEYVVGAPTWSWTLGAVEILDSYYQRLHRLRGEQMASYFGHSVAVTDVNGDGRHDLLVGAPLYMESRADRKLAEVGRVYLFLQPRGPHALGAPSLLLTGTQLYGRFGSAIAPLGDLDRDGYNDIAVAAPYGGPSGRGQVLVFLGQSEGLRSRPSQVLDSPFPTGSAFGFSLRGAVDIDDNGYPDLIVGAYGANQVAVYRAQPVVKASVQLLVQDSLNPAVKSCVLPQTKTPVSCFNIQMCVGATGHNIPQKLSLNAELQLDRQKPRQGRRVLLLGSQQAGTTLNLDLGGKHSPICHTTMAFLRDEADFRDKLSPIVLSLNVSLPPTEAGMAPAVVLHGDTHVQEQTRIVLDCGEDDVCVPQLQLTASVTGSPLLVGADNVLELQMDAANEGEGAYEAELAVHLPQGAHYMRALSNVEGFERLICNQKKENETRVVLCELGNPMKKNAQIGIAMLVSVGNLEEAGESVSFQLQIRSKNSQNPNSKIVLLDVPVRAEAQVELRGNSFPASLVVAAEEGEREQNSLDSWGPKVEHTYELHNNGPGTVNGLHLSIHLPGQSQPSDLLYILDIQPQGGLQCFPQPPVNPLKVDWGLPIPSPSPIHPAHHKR
integrin αIIbβ3, sequence (P08514 891-1039 partner limits assumed): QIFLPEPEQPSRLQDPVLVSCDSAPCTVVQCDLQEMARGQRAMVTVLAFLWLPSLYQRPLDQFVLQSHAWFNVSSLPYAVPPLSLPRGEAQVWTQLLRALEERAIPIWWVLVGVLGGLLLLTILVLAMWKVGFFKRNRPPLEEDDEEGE
integrin αIIbβ3, sequence (P05106 27-788): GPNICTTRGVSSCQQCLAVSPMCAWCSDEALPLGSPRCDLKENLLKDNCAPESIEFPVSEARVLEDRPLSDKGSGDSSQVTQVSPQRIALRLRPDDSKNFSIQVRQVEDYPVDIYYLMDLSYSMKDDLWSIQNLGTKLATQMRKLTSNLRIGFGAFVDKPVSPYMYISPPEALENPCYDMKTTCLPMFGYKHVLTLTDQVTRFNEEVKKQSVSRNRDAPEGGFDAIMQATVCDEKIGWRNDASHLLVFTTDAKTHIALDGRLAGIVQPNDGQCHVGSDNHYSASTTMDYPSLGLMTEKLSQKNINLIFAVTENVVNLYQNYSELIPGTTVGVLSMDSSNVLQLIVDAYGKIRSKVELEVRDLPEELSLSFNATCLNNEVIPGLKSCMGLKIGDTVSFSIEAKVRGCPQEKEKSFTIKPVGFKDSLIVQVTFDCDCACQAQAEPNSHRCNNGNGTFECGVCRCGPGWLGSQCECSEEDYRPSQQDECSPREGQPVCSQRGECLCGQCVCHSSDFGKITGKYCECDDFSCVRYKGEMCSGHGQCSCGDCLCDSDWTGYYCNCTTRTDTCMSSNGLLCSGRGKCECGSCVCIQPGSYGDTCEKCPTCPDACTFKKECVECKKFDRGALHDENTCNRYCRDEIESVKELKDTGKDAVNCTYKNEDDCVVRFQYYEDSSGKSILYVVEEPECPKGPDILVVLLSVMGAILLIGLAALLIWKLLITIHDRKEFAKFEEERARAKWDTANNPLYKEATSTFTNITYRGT

Compound: O=C(Nc1ccc([N+](=O)[O-])cc1Cl)c1cc(Cl)ccc1O [niclosamide]
- viability (in vitro): ~50%

Compound: antimycin
- effect on SNV-induced PAC-1 staining (integrin αIIbβ3): inhibited PAC-1 staining
- koff, drop in bead fluorescence [1]: ~ 0.25
- cytopathic effects after 24 hours (Vero E6 cells): minimal cytopathic effects
- IC50 [2]: 10 µM
- % inhibition of infection by HTN (Hantaan virus (HTN)): ≥ 80%
- % inhibition of infection by SNV (Sin Nombre virus (SNV)): ≥ 80%
- effect on SNV-stimulated cAMP [3]: inhibited stimulation of cAMP

Compound: tocopherol
- cytopathic effects after 24 hours (Vero E6 cells): minimal cytopathic effects

Compound: Cc1c(Cl)cccc1Nc1ccccc1C(=O)O [tolfenamic acid]
- koff, drop in bead fluorescence [1]: ~ 0.25

Compound: GRGDSP
- effect on SNV-induced PAC-1 staining (integrin αIIbβ3): inhibited PAC1 staining
- effect on SNV-stimulated cAMP [3]: did not affect SNV-stimulated cAMP response

Compound: COC(=O)Nc1nc2ccc(Sc3ccccc3)cc2[nH]1 [fenbendazole]
- viability (in vitro): ~70%

Compound: Cc1cc2c(C(C)C)c(O)c(O)c(C=O)c2c(O)c1-c1c(C)cc2c(C(C)C)c(O)c(O)c(C=O)c2c1O [gossypol]
- koff, drop in bead fluorescence [1]: ~ 0.25
- viability (in vitro): ~30%

Compound: O=C(Nc1cc(C(=O)Nc2ccc(S(=O)(=O)O)cc2S(=O)(=O)O)cc(C(=O)Nc2ccc(S(=O)(=O)O)cc2S(=O)(=O)O)c1)Nc1cc(C(=O)Nc2ccc(S(=O)(=O)O)cc2S(=O)(=O)O)cc(C(=O)Nc2ccc(S(=O)(=O)O)cc2S(=O)(=O)O)c1 [NF449]
- reduction of viral N-protein relative to vehicle-treated cells (SNV): > 80%
